Test results: patent publication US8314142B2, “Dimers of artemisinin derivatives, preparation thereof and therapeutic use thereof” (Sanofi, priority 2006, dated 2012)

What follows are compounds tested on HCT116 cells (assay: Inhibition of cell proliferation of HCT116 cells (14C-thymidine incorporation, 96 hours)). Conditions: Homo sapiens, HCT-116, 14C-thymidine incorporation after 96 hours.
Assay type: cell-based
Description: The products according to the invention have been the subject of pharmacological trials which make it possible to determine their antiproliferative activity. It was determined by measuring the inhibition of cell proliferation of HCT116 cells. The cells are inoculated in a cell culture medium at a concentration of 10 000 cells per well, in 0.17 ml of medium, and 20 μl of test product, at various concentrations, and 10 μl of Thymidine [methyl-14C] (100 μCi/ml—specific activity 47.90 mCi/mmol; NEN Technologies reference NEC568 batch 3550-001) are added, and then the cells are incubated at 37° C. and 5% CO2.
Medium used for the culture of HCT116 cells: DMEM medium 2 mM L-glutamine, 200 IU/ml penicillin, 200 μg/ml streptomycin and 10% (V/V) fetal calf serum (Life Technologies).
After 96 hours, the incorporation of ^14C-thymidine is counted in a liquid scintillation counter 1450 Microbeta Wallac Trilux. The results R are expressed in cpm (counts per minute) and converted to percentage of growth inhibition GI % by first subtracting the mean of the number of cpm of the wells without cells B and then by dividing by the number of cpm of the wells of the untreated cells C comprising 20 μl of medium for dilution of the product containing 1% of ethanol (GI %=(R−B)×100/C %).
The IC50 values are calculated with the aid of the equation 205 of the XLFit software (IDBS company, UK) by nonlinear regression analysis using the Marquardt algorithm (Donald W. MARQUARDT, J. Soc. industry appl., vol. 11, No. 2, June, 1963).

Row | IC50 [nM] | Compound
1 | 47 | C[C@@H]1CC[C@H]2[C@@H](C)[C@](OCCSCCO[C@@]3(C(F)(F)F)O[C@@H]4O[C@]5(C)CC[C@H]6[C@H](C)CC[C@@H]([C@H]3C)[C@@]46OO5)(C(F)(F)F)O[C@@H]3O[C@@]4(C)CC[C@@H]1[C@]32OO4 [EX1]
2 | 23 | C[C@@H]1CC[C@H]2[C@@H](C)[C@](OCC[S+]([O-])CCO[C@@]3(C(F)(F)F)O[C@@H]4O[C@]5(C)CC[C@H]6[C@H](C)CC[C@@H]([C@H]3C)[C@@]46OO5)(C(F)(F)F)O[C@@H]3O[C@@]4(C)CC[C@@H]1[C@]32OO4 [EX2]
3 | 21 | C[C@@H]1CC[C@H]2[C@@H](C)[C@](OCCS(=O)(=O)CCO[C@@]3(C(F)(F)F)O[C@@H]4O[C@]5(C)CC[C@H]6[C@H](C)CC[C@@H]([C@H]3C)[C@@]46OO5)(C(F)(F)F)O[C@@H]3O[C@@]4(C)CC[C@@H]1[C@]32OO4 [EX3, (3S,5aS,6R,8aS,9R,10R,12R,12aR,3′S,5′aS,6′R,8′aS,-9′R,10′R,12′R,12′aR)-10,10′-[sulfonylbis(2,1-ethanediyloxy)]bis[decahydro-3,6,9-trimethyl-10-tri-fluoromethyl)-3,12-epoxy-12H-pyrano[4,3-j]-1,2-benzodioxepine]
4 | 30 | C[C@@H]1CC[C@H]2[C@@H](C)[C@](OCCN(C)CCO[C@@]3(C(F)(F)F)O[C@@H]4O[C@@]5(C)CC[C@H]6[C@H](C)CC[C@@H]([C@H]3C)[C@@]46OO5)(C(F)(F)F)O[C@@H]3O[C@@]4(C)CC[C@@H]1[C@]32OO4 [EX8, 2-[[(3R,5aS,6R,8aS,9R,10R,12R,12aR)-decahydro-3,6,9-trimethyl-10-(trifluoromethyl)-3,12-epoxy-12H-pyrano[4,3-j]-1,2-benzodioxepin-10-yl]oxy]-N-[2-[[(3R,5aS,6R,8aS,9R,10R,12R,12aR)-decahydro-3,6,9-trimethyl-10-(trifluoromethyl)-3,12-epoxy-12H-pyrano[4,3-j]-1,2-benzodioxepin-10-yl]oxy]ethyl]-N-methylethanamine]
